Several values for one entry are separate records, joined by “and”; a condition that tells them apart may be missing. Equal entries are not always repeated.
Experiments:
myoglobin (Myo) = assay: Intact protein MS photoaffinity labeling screen, myoglobin; format: binding; conditions: intact protein MS after 10 min irradiation
Outline: (§1)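 Read-out: intact protein MS taken straight from the plate, with successful labeling seen as added mass on the protein and expressed as labeling %. Beforehand, every fragment sat alone in a well with the protein for 15 min so non-covalent interactions could form.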

STAT5B-NTD [1] = system: T1, STAT5B-NTD; assay: Intact MS labeling screen, STAT5B-NTD conjugated with photocatalyst Ir-G2-PEG3-COOH (450 nm); format: binding; conditions: 450 nm 10 min;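 further: 0.14 µL of 100 mM DMSO fragment stock added to the conjugate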
T1 construct: His-SUMO (N, cleaved yes); made in house; host or cells: E. coli BL21 RILP
Outline: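 Ir-G2-PEG3-COOH photocatalyst (10 eq) activated 30 min with EDC/NHS/BOP, then conjugated to STAT5B-NTD (7 µM) overnight at RT or 1 h at 37 °C in dark. PhP added, 1 h dark, then 450 nm irradiation 10 min at 4 °C; labeling read by intact LC-MS, positive ion mode, m/z 100–2000.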

STAT5B-NTD [2] = system: T1, STAT5B-NTD; assay: Intact MS photoaffinity labeling screen, STAT5B-NTD (365 nm, UHPLC-MS); format: binding;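 on MS labeling percentage, STAT5B: 0.17 µL of 100 mM DMSO fragment stock added to the protein sample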
Outline: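 UV irradiation at 365 nm for 10 min at 4 °C. Labeling read by intact-protein UHPLC-MS, positive ion mode, m/z 100–2000.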

lysozyme (Lyo) = assay: Intact protein MS photoaffinity labeling screen, lysozyme; format: binding; conditions: intact protein MS after 10 min irradiation
Outline: as §1

[3] = system: carbonic anhydrase II (CA); assay: Intact protein MS photoaffinity labeling screen, carbonic anhydrase; format: binding; conditions: intact protein MS after 10 min irradiation
Outline: as §1

[4] = system: CA, Lyo, Myo, BRD4-BD1, KRas G12D, STAT5B-NTD; assay: Intact MS labeling compared over all protein targets; format: binding; conditions: for Labeling of the other protein targets (vs. preferred target): each of the other targets
Outline: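 Each fragment incubated 15 min with protein, then UV-irradiated 10 min at 302 or 365 nm to crosslink. Labeling % read by intact-protein LC-TOF MS from mass additions. For BRD4-BD1 and KRas G12D, protein stock was 1 µM in PBS, fragment stock 20 mM, incubation was on ice and irradiation at 302 nm.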

KRas^G12D = system: T2, KRas^G12D; assay: Intact MS photoaffinity labeling screen, KRas G12D (302 nm, LCMS-TOF); format: binding; conditions: for MS labeling percentage, KRas: KRas G12D, 302 nm 10 min
T2 construct: purchased GSK/GenScript
Outline: (§2)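 Labeling detected as mass additions in deconvoluted intact-protein LCMS-TOF spectra. Protein at 1 μM in PBS was first mixed with one fragment per well on ice for 15 min, followed by 10 min UV exposure at 302 nm.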

MV4-11 cells = assay: CellTiter-Blue cell viability assay, MV4-11; format: cell-based; conditions: Homo sapiens, MV4-11, 72 h
Procedure: MV4-11 and MOLM-13 cell lines were purchased from DSMZ (Braunschweig, Germany), and grown at 37 °C and 5% CO2 in RPMI 1640 medium (Gibco^TM, Thermo Fisher Scientific). Media were supplemented with 10% fetal calf serum (FCS), 10 U/mL penicillin, 10 µg/mL streptomycin and 2 mM L-glutamine (all Gibco^TM, Thermo Fisher Scientific).
To determine the IC50 of the selected compounds on the cell lines, CellTiter-Blue® cell viability assay (Promega) was performed. For this, cells were seeded in 96-well flat bottom plates at a cell density of 10,000 cells/well. Cells were treated in triplicates with the compound of interest at various concentrations or with 10 μM Bortezomib (S1013; Selleck Chemicals, Houston, TX, USA) as a positive control. Cell viability of treated cell lines was measured using CellTiter-Blue® after 72 h incubation. Plates were measured using a GloMax® plate reader (Promega) and IC50 values were determined by non-linear regression using the GraphPad Prism 9.1.1 (GraphPad Software, Inc.) and the data are reported as mean values ± SEM.

BRD4-BD1 = system: T3, BRD4-BD1; assay: Intact MS photoaffinity labeling screen, BRD4-BD1 (302 nm, LCMS-TOF); format: binding; conditions: for MS labeling percentage, BRD4: BRD4-BD1, 302 nm 10 min
T3 construct: screened the PhP library against the first bromodomain of BRD4 (BRD4-BD1); purchased GSK/GenScript
Outline: as §2

[5] = sheet PhP, experimental hit status flag given as 0 or 1
[6] = PhP library sheet "PhP", binary flag printed as 0 or 1, key not given

Structure (SMILES)	MS labeling percentage, Myo (myoglobin (Myo)) [%]	MS labeling percentage, STAT5B+photocat (STAT5B-NTD [1]) [%]	STAT5B-NTD (experimental hit status) (STAT5B-NTD [2]; [5])	MS labeling percentage, Lyo (lysozyme (Lyo)) [%]	MS labeling percentage, CA [3] [%]	Labeling of the other protein targets (vs. preferred target) [4]	MS labeling percentage, KRas (KRas^G12D) [%]	KRAS-G12D (experimental hit status) (KRas^G12D; [5])	IC50 (MV4-11 cells) [µM]	BRD4-BD1 (experimental hit status) (BRD4-BD1; [5])	MS labeling percentage, STAT5B (STAT5B-NTD [2]; STAT5B-NTD, 365 nm 10 min, no photocatalyst) [%]	Labeling efficiency over all protein targets (mean ± spread) ([4]; over all protein targets) [%]	MS labeling percentage, BRD4 (BRD4-BD1) [%]	STAT5B-NTD (experimental hit status) (STAT5B-NTD [2]; [6])	KRAS-G12D (experimental hit status) (KRas^G12D; [6])	BRD4-BD1 (experimental hit status) (BRD4-BD1; [6])
Cc1[nH]c2ccccc2c1SCCNC(=O)CCC1(C)N=N1 [PhP065, c1cccc(c12)c(c(C)[nH]2)SCCNC(=O)CCC3(C)N=N3]	0.1	11.2	1	2.6	0.3	> 3% and < 3%	0.2	0	76.2	0	–	–	–	–	–	–
Cc1ncc(CO)c(CNC(=O)CCC2(C)N=N2)c1O [PhP072, Cc1ncc(CO)c(c1O)CNC(=O)CCC2(C)N=N2]	3.3	3.3	0	1	7.7	–	12.2	1	–	1	0	4.4 ± 4.3	2.2	–	–	–
CC1(CCC(=O)NCCc2csc(-c3ccccc3)n2)N=N1 [PhP097, N1=NC1(C)CCC(=O)NCCc2csc(n2)-c3ccccc3]	0.1	4.2	–	1.8	0	> 3% and < 3%	0.2	–	56.6	–	–	–	0.5	1	0	0

Reference: publication PMC11292009, “Mapping protein binding sites by photoreactive fragment pharmacophores” (Communications Chemistry, 2024)
